ChEMBL document CHEMBL1124916, “Neural networks applied to quantitative structure-activity relationship analysis” (1990)
Values joined by “and” are separate entries in the source; they are usually repeats but may differ in a detail not shown here. Equal values may be shown once.

Tests used:
Type in all cases: functional
Mus musculus [1] = species: Mus musculus; test: Optimal Dose (OD) which cause maximum increase in the life span, after singular injection at log (1/C).
Mus musculus [2] = species: Mus musculus; test: Optimal Dose (OD) which cause maximum increase in the life span, after chronic injection at log (1/C).
Mus musculus [3] = species: Mus musculus; test: Minimum Effective Dose (MED) which cause 40% increase in life span, after chronic injection at log (1/C).
Mus musculus [4] = species: Mus musculus; test: Minimum Effective Dose (MED) which cause 40% increase in life span, after singular injection at log (1/C).
[5] = Compound was evaluated for the Anti-fighting behavior.; design: scale not given here
[6] = Evaluation for the Anti-pentylenetetrazole effect.; design: unit not given here

Row | SMILES | OD (Mus musculus [1]) | OD (Mus musculus [2]) | MED (Mus musculus [3]) | MED (Mus musculus [4]) | Anti-fighting behaviour [5] | Anti-pent effect [6]
1 | CCCCCC1=C(N2CC2)C(=O)C(CCCCC)=C(N2CC2)C1=O | 3.62 | 4.52 | 4.63 | 4.07 | – | –
2 | CC1=C(N2CC2)C(=O)C(CCOC(N)=O)=C(N2CC2)C1=O | 5.46 | 5.75 | 6.21 | 5.83 | – | –
3 | CC1=C(N2CC2)C(=O)C(Cc2ccccc2)=C(N2CC2)C1=O | 4.26 | 4.69 | 4.85 | 4.74 | – | –
4 | CN(C)C(=O)OCCC1=C(N2CC2)C(=O)C(CCOC(=O)N(C)C)=C(N2CC2)C1=O | 4.62 | 4.85 | 5.16 | – | – | –
5 | CC1=C(N2CC2)C(=O)C(CCCC2=C(N3CC3)C(=O)C(C)=C(N3CC3)C2=O)=C(N2CC2)C1=O | – | 5.39 | 5.82 | – | – | –
6 | O=C1C(c2ccccc2)=C(N2CC2)C(=O)C(c2ccccc2)=C1N1CC1 | 3.53 | 4.14 | 4.33 | – | – | –
7 | CN(C)CCCN1C(=O)CN=C(c2ccccc2)c2cc([N+](=O)[O-])ccc21 | – | – | – | – | 3.61 and 3.96 | 5.82 and 4.28
8 | CN(C)C(=O)CN1C(=O)CN=C(c2ccccc2)c2cc(Cl)ccc21 | – | – | – | – | 4.25 | 5.35
9 | N#Cc1ccc2c(c1)C(c1ccccc1)=NCC(=O)N2 | – | – | – | – | 3.81 | 5.3
10 | O=C1CN=C(c2ccccc2)c2cc(Cl)ccc2N1CC1CC1 | – | – | – | – | 4.51 | 4.9
11 | CCN(CC)CCN1C(=O)CN=C(c2ccccc2)c2cc(Cl)ccc21 | – | – | – | – | 3.57 | 5.06
12 | COc1ccccc1C1=NCC(=O)Nc2ccc(Cl)cc21 | – | – | – | – | 3.48 | 4.6
13 | CC(=O)CN1C(=O)CN=C(c2ccccc2)c2cc(Cl)ccc21 | – | – | – | – | 4.21 | 5.28
14 | O=C1CN=C(c2ccccc2)c2cc(Cl)ccc2N1Cc1ccccc1 | – | – | – | – | 3.56 | 4.64
15 | CCC(C)CN1C(=O)CN=C(c2ccccc2)c2cc([N+](=O)[O-])ccc21 (stereo not given) | – | – | – | – | 3.77 | 4.8
16 | NN1C(=O)CN=C(c2ccccc2)c2cc([N+](=O)[O-])ccc21 | – | – | – | – | 5.17 | 5.77

Row | SMILES | OD (Mus musculus [1]) | OD (Mus musculus [2]) | MED (Mus musculus [3]) | MED (Mus musculus [4]) | Anti-fighting behaviour [5] | Anti-pent effect [6]
17 | CN1C(=O)CN=C(c2ccccc2)c2cc([N+](=O)[O-])ccc21 | – | – | – | – | 5.07 | 5.62
18 | O=C1CN=C(c2ccccc2)c2cc(C(F)(F)F)ccc2N1 | – | – | – | – | 4.48 | 5.48
19 | CN1C(=O)CN=C(c2ccccc2Cl)c2cc(Cl)ccc21 | – | – | – | – | 4.5 | 6.03
20 | CC1=C(N2CC2)C(=O)C(CCOC(=O)N(C)C)=C(N2CC2)C1=O | 4.84 | – | – | 5.09 | – | –
21 | O=C1CN=C(c2ccccc2)c2cc(Br)ccc2N1 | – | – | – | – | 4.2 | 5.2
22 | CCN(CC)CCN1C(=O)CN=C(c2ccccc2F)c2cc(Cl)ccc21 | – | – | – | – | 4.29 | 5.38
23 | CC(=O)OCCC1=C(N2CC2)C(=O)C(C)=C(N2CC2)C1=O | – | 5.78 | 5.78 | – | – | –
24 | CN1C(=O)CN=C(c2ccccc2)c2cc(C#N)ccc21 | – | – | – | – | 4.74 | 5.44
25 | CN(C)CCN1C(=O)CN=C(c2ccccc2)c2cc(C(F)(F)F)ccc21 | – | – | – | – | 4.27 | 4.76
26 | CSc1ccc2c(c1)C(c1ccccc1)=NCC(=O)N2C | – | – | – | – | 3.87 | 3.6
27 | CN1C(=O)CN=C(c2ccccc2Cl)c2cc([N+](=O)[O-])ccc21 | – | – | – | – | 5.12 | 6.92
28 | CC(=O)C1=C(N2CC2)C(=O)C(C)=C(N2CC2)C1=O | 3.48 | – | – | 3.94 | – | –
29 | CSc1ccc2c(c1)C(c1ccccc1)=NCC(=O)N2 | – | – | – | – | 4.15 | 4.15
30 | O=C1CN=C(c2ccccc2)c2cc([N+](=O)[O-])ccc2N1 | – | – | – | – | 4.75 | 5.6
31 | CCN1C(=O)CN=C(c2ccccc2)c2cc(Cl)ccc21 | – | – | – | – | 4.17 | 4.9
